Measured values as given in patent publication US20250353835A1, “N-TETRAZOLYL ARYL UREA-BASED DERIVATIVES, PREPARATION METHOD THEREFOR, AND USE THEREOF” (Hangzhou Yirui Pharmaceutical Technology Co., Ltd, priority 2022, published 2025).
Read-outs that look alike come from different tables or passages of the source.

What was measured:
[1] = tested on: mouse model of ragweed pollen-induced allergic conjunctivitis; experiment: Mouse model of ragweed pollen-induced allergic conjunctivitis; assay type: in vivo, Balb/c mice; settings: for Clinical symptom score: twice a day for 14 days, Day 14 within 30 minutes after final challenge
Description: SPF-grade Balb/c mice (half male and half female, 6-8 weeks old) were used as experimental animals. On Day 0 and Day 6, ragweed pollen footpad injection was injected subcutaneously into the footpads of mice for sensitization (65 μl per mouse). On Days 10-14, in the model group, eye drop of ragweed pollen was applied to both eyes of the mice (10 μl per mouse) once a day. The eye drops were applied for 5 consecutive days to trigger local allergic conjunctivitis (Wu B, et al., Frontiers in Immunology, 2021, 12:4754). […] On Day 14, within 30 minutes after the final challenge, the ocular clinical symptoms of the mice were observed under a microscope and scored according to the scoring criteria reported by Magone et al. (MerayoLloves J, et al., J Allergy Clin Immunol (1996) 97(5):1129-40; Magone M T, et al., Clin Immunol Immunopathol (1998) 87(1):75-84), the allergic response of the eyes were observed, including 4 indexes: conjunctival edema, conjunctival congestion, eyelid congestion and edema, and tearing. The scores were recorded as 0-3 points according to the severity (including none, mild, moderate and severe). The left eye of the mouse was taken with the eyelid (keeping the conjunctiva intact), fixed with polyformaldehyde, sectioned in paraffin, Hematoxylin-Eosin stained (HE stained), and toluidine blue stained (for detection of mast cells). Photographs were taken to analyze the inflammatory cell infiltration of the conjunctival tissue, and observe whether the mast cells in the conjunctiva aggregated and whether a phenomenon of degranulation occurred. The expression of allergic indicators IL-4 and IgE in the conjunctival tissue was detected by immunohistochemistry.
The mouse eye, including the eyelids (with intact conjunctiva), was sectioned after deparaffinization, and subjected to antigen retrieval and serum blocking.
Diluted IL-4 or IgE antibodies were added and incubated overnight. After incubation with secondary antibodies, DAB staining was performed, followed by counterstaining with hematoxylin. The slides were then mounted and observed under an […], with photographs taken. Semi-quantitative analysis was conducted using Image-J software. Based on the cumulative optical density and regional area values of each image, the average optical density was calculated to detect the positive expression of IL-4 or IgE.

[2] = Liver microsomal metabolism in vitro, human LM clearance; assay type: in vitro ADME; settings: human liver microsomes in vitro
Description: In addition, the LC-MS/MS method was used to determine the substrate metabolites of 5 major subtypes of human liver microsomal CYP450 enzymes (including CYP1A2, CYP2D6, CYP2C8, CYP2C9, and CYP3A4). The substrate method was used to determine the activity of human liver microsomal CYP450 enzyme. The established incubation system was verified using known inhibitors to investigate the inhibitory effect of the compound on CYP450 enzyme. For the enzyme induction test, a primary cultured human hepatocyte incubation system was used. 3-methylcholanthrene, phenobarbital, and rifampicin were used as positive control inducers of CYP1A2, CYP2B6, and CYP3A4, and phenacetin, bupropion, and testosterone were used as the substrate for CYP1A2, CYP2B6, and CYP3A4. The CYP450 enzyme activity was calculated by measuring the generation rate of 3 specific substrate metabolites in the incubation solution. Meanwhile, the total RNA was extracted from the human hepatocytes after incubation, and the real-time fluorescence quantitative PCR method was used to determine the mRNA expression level of CYP1A2, […], and CYP3A4. The enzyme activity and mRNA transcription level were used as endpoints to investigate the inductive effect of the compound on human liver P450 isoenzymes CYP1A2, […], and CYP3A4. The liver microsomal metabolism parameters in vitro are shown in Table 2B3 taking Compound 8 as an example.

[3] = Drug concentration in rat retinas after intraocular injection (HPLC); assay type: in vivo, Wistar rats; settings: retina
Excerpt: 1.1 Experimental aminals: SPF-grade male Wistar rats weighed 180-220 g.
1.2 Drugs and reagents: Compound 71; sodium chloride injection (Shandong Qidu Pharmaceutical Co., Ltd., Batch No.: 3B151014124); acetonitrile (chromatographically pure, TEDIA, USA); methanol (chromatographically pure, SIGMA-ALDRICH product); triethylamine (analytically pure, Hangzhou Gaojing Fine Chemical Co., Ltd.).
1.3 Experimental grouping and administration: according to the sampling time, 33 male Wistar rats were divided into 11 groups (three rats per group) of: (1) control group; (2) 0 h; (3) 2 h; (4) 6 h; (5) 24 h; (6) 48 h; (7) 72 h; (8) 5 d; (9) 7 d; (10) 10 d; (11) 14 d. Three rats in the control group were injected with solvent (sterile normal saline) intraocularly, and the remaining 30 rats were injected with Compound 71 intraocularly at a concentration of 0.5% by using a 5 μL microinjector, and 5 μL of drug was injected per bulbus oculi.
1.4 Sampling and detection index: The retina of the rat in the control group was taken on Day 14 (14 d), and the retina of the remaining 30 rats was taken at the corresponding time points. The retina were frozen in liquid nitrogen, and then subjected to the subsequent HPLC detection.
1.5.1 Chromatographic conditions: The mobile phase was chromatographic grade acetonitrile-water=25-75 (v/v). The flow rate was 0.5 mL/min. The column temperature was 25° C. The UV detection wavelength was 254 nm. The injection volume was 20 μL.
1.5.2 Sample processing and preparation: the sample of the rat retina was taken out from the ultra-low temperature (−80° C.) refrigerator, accurately weighed and placed in a glass homogenizer, and ethyl acetate as an organic solvent pre-cooled in a 4° C. refrigerator was added at a ratio of 100 mL/g. The homogenizer was placed in an ice bath for homogenization. After homogenization, all the homogenate was poured into a 5 mL stoppered centrifuge tube. The centrifugation was performed at a low temperature of 4° C. for 5 min (5000 r/min). All the organic phase as the upper layer was accurately taken out and placed in a glass tube with conical bottom. The remaining residue of retina was extracted with 2 mL ethyl acetate repeatedly once. After centrifugation, the two organic phases were combined. Then, the centrifuge tube with conical bottom was blowed for dryness in a nitrogen flow in a 45° C. water bath. The residue was redissolved with 0.1 mL of chromatographic methanol, vortex mixed for 1 min, and centrifuged for 5 min at a high speed of 18000 r/min. 20 μL of the supernatant was taken, and analyzed in a high-performance liquid chromatography system.
1.5.3 Sample determination: After intraocular injection of 5 μL of 0.5% Compound 71, the retina was taken at different time points to analyze the drug content of the test compound in the retina.
1.5.4 Experimental results and conclusions: According to the retinal drug concentration-time curve, it is in conformity to the non-absorption two-compartment model. According to the pharmacokinetic non-absorption two-compartment model theory, the pharmacokinetic parameters of the drug were calculated.

[4] = immunohistochemistry, 2% eye drop
[5] = intraocular injection of 5 μL of 0.5% per eye, two-compartment model

SMILES | inflammatory cell infiltration of conjunctival tissue (HE staining; in words) ([1]; 0.5% eye drop) | mast cell degranulation (toluidine blue staining; in words) ([1]; 0.5% eye drop) | Clinical symptom score ([1]; 0.5% eye drop) | inflammatory cell infiltration of conjunctival tissue (HE staining; in words) ([1]; 2% eye drop) | mast cell degranulation (toluidine blue staining; in words) ([1]; 2% eye drop) | Clinical symptom score ([1]; 2% eye drop) | expression of IgE in ocular tissue (average optical density) ([1]; immunohistochemistry, 0.5% eye drop) | expression of IL-4 in ocular tissue (average optical density) [1, 4] | expression of IgE in ocular tissue (average optical density) [1, 4] | Human LM clearance [2] [mL/min/kg] | concentration at 14 d ([3]; male, Wistar, rat, other: intraocular injection, 5 μL of 0.5% solution per eye, Day 14 after intraocular injection of 0.5% (5 μL per eye), read-out: retinal concentration) [nM] | half-life ([3]; male, Wistar, rat, topical or ocular, 5 μL of 0.5% solution per eye, intraocular injection of 5 μL of 0.5% per eye, two-compartment model, read-out: Distribution half-life (converted)) [h] | half-life ([3]; male, Wistar, rat, topical or ocular, 5 μL of 0.5% solution per eye, intraocular injection of 5 μL of 0.5% per eye, two-compartment model, read-out: Elimination half-life (converted)) [h] | AUC ([3]; male, Wistar, rat, topical or ocular, 5 μL of 0.5% solution per eye, intraocular injection of 5 μL of 0.5% per eye, two-compartment model, read-out: Area under the time curve AUC) [µg·h/mL] | Apparent distribution volume [3, 5] [L] | Total clearance CLT [3, 5] [L/h]
CCOc1ccc(-c2c(F)cc(NC(=O)N3CCC(C(C)(C)C)CC3)cc2-c2nn[nH]n2)cn1 [Compound 8, 4-(tert-butyl)-N-(4-(6-ethoxypyrid-3-yl)-3-fluoro-5-(2H-tetrazol-5-yl)phenyl)piperidine-1-carboxamide] | inflammatory cell infiltration was still visible | a few samples showed manifest mast cell degranulation | 3.67 ± 0.36 | an improvement in inflammatory cell infiltration | no mast cell degranulation was observed | 1.75 ± 0.22^♦ | 0.72±0.12 | 0.24±0.06 | 0.54±0.06 | 8.5 | – | – | – | – | – | –
CCOc1ccc(-c2ccc(NC(=O)N[C@H]3CC[C@H](C)CC3)cc2-c2nn[nH]n2)cn1 [Compound 71, 1-(4-(6-ethoxypyrid-3-yl)-3-(2H-tetrazol-5-yl)phenyl)-3-((trans)-4-methylcyclohexyl)urea] | – | – | – | – | – | – | – | – | – | – | 1240 | 6.97 | 408 | 901 | 0.001676 | 5.55e-05
